Active and inactive are the calls of the source. The rule behind the calls is not given here.
Columns and labels:
Cryptolestes ferrugineus [1] = assay: Reduction of progeny production in adult Cryptolestes ferrugineus (rusty grain beetle) at 0.0875 to 0.0375 to ppm exposed on wheat; type: functional, organism-based
Tribolium castaneum [2] = assay: Reduction of progeny production in adult Tribolium castaneum (red flour beetle) at 0.0875 to 0.0375 to ppm exposed on wheat; type: functional, organism-based
Sitophilus zeamais [3] = assay: Reduction of progeny production in adult Sitophilus zeamais at 0.0875 to 0.0375 to ppm exposed on wheat; type: functional, organism-based
Cryptolestes ferrugineus [4] = assay: Insecticidal activity against adult Cryptolestes ferrugineus (rusty grain beetle) assessed as mortality at 0.0875 ppm exposed for 14 days on wheat; type: functional; conditions: 336 h
Cryptolestes ferrugineus [5] = assay: Insecticidal activity against adult Cryptolestes ferrugineus (rusty grain beetle) assessed as mortality at 0.075 ppm exposed for 14 days on wheat; type: functional; conditions: 336 h
Cryptolestes ferrugineus [6] = assay: Insecticidal activity against adult Cryptolestes ferrugineus (rusty grain beetle) assessed as mortality at 0.0625 ppm exposed for 14 days on wheat; type: functional; conditions: 336 h
Cryptolestes ferrugineus [7] = assay: Insecticidal activity against adult Cryptolestes ferrugineus (rusty grain beetle) assessed as mortality at 0.05 ppm exposed for 14 days on wheat; type: functional; conditions: 336 h
Cryptolestes ferrugineus [8] = assay: Insecticidal activity against adult Cryptolestes ferrugineus (rusty grain beetle) assessed as mortality at 0.0375 ppm exposed for 14 days on wheat; type: functional; conditions: 336 h
Cryptolestes ferrugineus [9] = assay: Insecticidal activity against adult Cryptolestes ferrugineus (rusty grain beetle) assessed as mortality at 0.0875 ppm exposed for 7 days on wheat; type: functional; conditions: 168 h
Tribolium castaneum [10] = assay: Insecticidal activity against adult Tribolium castaneum (red flour beetle) assessed as mortality at 0.0875 ppm exposed for 7 days on wheat; type: functional
Tribolium castaneum [11] = assay: Insecticidal activity against adult Tribolium castaneum (red flour beetle) assessed as mortality at 0.0375 ppm exposed for 14 days on wheat; type: functional
Tribolium castaneum [12] = assay: Insecticidal activity against adult Tribolium castaneum (red flour beetle) assessed as mortality at 0.05 ppm exposed for 14 days on wheat; type: functional
Tribolium castaneum [13] = assay: Insecticidal activity against adult Tribolium castaneum (red flour beetle) assessed as mortality at 0.0625 ppm exposed for 14 days on wheat; type: functional
Sitophilus zeamais [14] = assay: Insecticidal activity against adult Sitophilus zeamais assessed as mortality at 0.05 ppm exposed for 7 days on wheat; type: functional
Sitophilus zeamais [15] = assay: Insecticidal activity against adult Sitophilus zeamais assessed as mortality at 0.0625 ppm exposed for 7 days on wheat; type: functional
Sitophilus zeamais [16] = assay: Insecticidal activity against adult Sitophilus zeamais assessed as mortality at 0.075 ppm exposed for 7 days on wheat; type: functional
Sitophilus zeamais [17] = assay: Insecticidal activity against adult Sitophilus zeamais assessed as mortality at 0.0875 ppm exposed for 7 days on wheat; type: functional
Sitophilus zeamais [18] = assay: Insecticidal activity against adult Sitophilus zeamais assessed as mortality at 0.0375 ppm exposed for 14 days on wheat; type: functional
Sitophilus zeamais [19] = assay: Insecticidal activity against adult Sitophilus zeamais assessed as mortality at 0.05 ppm exposed for 14 days on wheat; type: functional
Sitophilus zeamais [20] = assay: Insecticidal activity against adult Sitophilus zeamais assessed as mortality at 0.0625 ppm exposed for 14 days on wheat; type: functional
Sitophilus zeamais [21] = assay: Insecticidal activity against adult Sitophilus zeamais assessed as mortality at 0.075 ppm exposed for 14 days on wheat; type: functional
Sitophilus zeamais [22] = assay: Insecticidal activity against adult Sitophilus zeamais assessed as mortality at 0.0875 ppm exposed for 14 days on wheat; type: functional
Tribolium castaneum [23] = assay: Insecticidal activity against adult Tribolium castaneum (red flour beetle) assessed as mortality at 0.0375 ppm exposed for 5 days on wheat; type: functional
Tribolium castaneum [24] = assay: Insecticidal activity against adult Tribolium castaneum (red flour beetle) assessed as mortality at 0.05 ppm exposed for 5 days on wheat; type: functional
Tribolium castaneum [25] = assay: Insecticidal activity against adult Tribolium castaneum (red flour beetle) assessed as mortality at 0.0625 ppm exposed for 5 days on wheat; type: functional
Tribolium castaneum [26] = assay: Insecticidal activity against adult Tribolium castaneum (red flour beetle) assessed as mortality at 0.075 ppm exposed for 5 days on wheat; type: functional
Tribolium castaneum [27] = assay: Insecticidal activity against adult Tribolium castaneum (red flour beetle) assessed as mortality at 0.0875 ppm exposed for 5 days on wheat; type: functional
Tribolium castaneum [28] = assay: Insecticidal activity against adult Tribolium castaneum (red flour beetle) assessed as mortality at 0.0375 ppm exposed for 7 days on wheat; type: functional
Tribolium castaneum [29] = assay: Insecticidal activity against adult Tribolium castaneum (red flour beetle) assessed as mortality at 0.05 ppm exposed for 7 days on wheat; type: functional
Tribolium castaneum [30] = assay: Insecticidal activity against adult Tribolium castaneum (red flour beetle) assessed as mortality at 0.0625 ppm exposed for 7 days on wheat; type: functional
Tribolium castaneum [31] = assay: Insecticidal activity against adult Tribolium castaneum (red flour beetle) assessed as mortality at 0.075 ppm exposed for 7 days on wheat; type: functional
Tribolium castaneum [32] = assay: Insecticidal activity against adult Tribolium castaneum (red flour beetle) assessed as mortality at 0.075 ppm exposed for 14 days on wheat; type: functional
Tribolium castaneum [33] = assay: Insecticidal activity against adult Tribolium castaneum (red flour beetle) assessed as mortality at 0.0875 ppm exposed for 14 days on wheat; type: functional
Cryptolestes ferrugineus [34] = assay: Insecticidal activity against adult Cryptolestes ferrugineus (rusty grain beetle) assessed as mortality at 0.0375 ppm exposed for 5 days on wheat; type: functional; conditions: 120 h
Cryptolestes ferrugineus [35] = assay: Insecticidal activity against adult Cryptolestes ferrugineus (rusty grain beetle) assessed as mortality at 0.05 ppm exposed for 5 days on wheat; type: functional; conditions: 120 h
Cryptolestes ferrugineus [36] = assay: Insecticidal activity against adult Cryptolestes ferrugineus (rusty grain beetle) assessed as mortality at 0.0625 ppm exposed for 5 days on wheat; type: functional; conditions: 120 h
Cryptolestes ferrugineus [37] = assay: Insecticidal activity against adult Cryptolestes ferrugineus (rusty grain beetle) assessed as mortality at 0.075 ppm exposed for 5 days on wheat; type: functional; conditions: 120 h
Cryptolestes ferrugineus [38] = assay: Insecticidal activity against adult Cryptolestes ferrugineus (rusty grain beetle) assessed as mortality at 0.0875 ppm exposed for 5 days on wheat; type: functional; conditions: 120 h
Cryptolestes ferrugineus [39] = assay: Insecticidal activity against adult Cryptolestes ferrugineus (rusty grain beetle) assessed as mortality at 0.075 ppm exposed for 7 days on wheat; type: functional; conditions: 168 h
Cryptolestes ferrugineus [40] = assay: Insecticidal activity against adult Cryptolestes ferrugineus (rusty grain beetle) assessed as mortality at 0.0625 ppm exposed for 7 days on wheat; type: functional; conditions: 168 h
Cryptolestes ferrugineus [41] = assay: Insecticidal activity against adult Cryptolestes ferrugineus (rusty grain beetle) assessed as mortality at 0.05 ppm exposed for 7 days on wheat; type: functional; conditions: 168 h
Cryptolestes ferrugineus [42] = assay: Insecticidal activity against adult Cryptolestes ferrugineus (rusty grain beetle) assessed as mortality at 0.0375 ppm exposed for 7 days on wheat; type: functional; conditions: 168 h
Sitophilus zeamais [43] = assay: Insecticidal activity against adult Sitophilus zeamais assessed as mortality at 0.075 ppm exposed for 5 days on wheat; type: functional
Sitophilus zeamais [44] = assay: Insecticidal activity against adult Sitophilus zeamais assessed as mortality at 0.0625 ppm exposed for 5 days on wheat; type: functional
Sitophilus zeamais [45] = assay: Insecticidal activity against adult Sitophilus zeamais assessed as mortality at 0.05 ppm exposed for 5 days on wheat; type: functional
Sitophilus zeamais [46] = assay: Insecticidal activity against adult Sitophilus zeamais assessed as mortality at 0.0375 ppm exposed for 5 days on wheat; type: functional
Sitophilus zeamais [47] = assay: Insecticidal activity against adult Sitophilus zeamais assessed as mortality at 0.0875 ppm exposed for 5 days on wheat; type: functional
Sitophilus zeamais [48] = assay: Insecticidal activity against adult Sitophilus zeamais assessed as mortality at 0.0375 ppm exposed for 7 days on wheat; type: functional

## CC(=O)O[C@H]1C[C@](C)(O)[C@]23OC(C)(C)[C@H]([C@H](OCC(C)C)[C@@H](OCc4ccccc4)[C@]2(COCC(C)C)[C@H]1OC(C)=O)[C@H]3O [BITTERBARKOMYCIN]
Cryptolestes ferrugineus [1]
  Activity: Active
Tribolium castaneum [2]
  Activity: Active
Sitophilus zeamais [3]
  Activity: Active
Cryptolestes ferrugineus [4]
  mortality at 0.0875 ppm: 100%
Cryptolestes ferrugineus [5]
  mortality at 0.075 ppm: 100%
Cryptolestes ferrugineus [6]
  mortality at 0.0625 ppm: 90.3%
Cryptolestes ferrugineus [7]
  mortality at 0.05 ppm: 86.7%
Cryptolestes ferrugineus [8]
  mortality at 0.0375 ppm: 83.8%
Cryptolestes ferrugineus [9]
  mortality at 0.0875 ppm: 100%
Tribolium castaneum [10]
  Activity: 68%
Tribolium castaneum [11]
  Activity: 66%
Tribolium castaneum [12]
  Activity: 86%
Tribolium castaneum [13]
  Activity: 95.8%
Sitophilus zeamais [14]
  Activity: 65.1%
Sitophilus zeamais [15]
  Activity: 72.2%
Sitophilus zeamais [16]
  Activity: 86%
Sitophilus zeamais [17]
  Activity: 90.4%
Sitophilus zeamais [18]
  Activity: 64.4%
Sitophilus zeamais [19]
  Activity: 73.8%
Sitophilus zeamais [20]
  Activity: 83.1%
Sitophilus zeamais [21]
  Activity: 92.9%
Sitophilus zeamais [22]
  Activity: 98.2%
Tribolium castaneum [23]
  Activity: 19.6%
Tribolium castaneum [24]
  Activity: 21.8%
Tribolium castaneum [25]
  Activity: 23.3%
Tribolium castaneum [26]
  Activity: 33.6%
Tribolium castaneum [27]
  Activity: 50%
Tribolium castaneum [28]
  Activity: 48.2%
Tribolium castaneum [29]
  Activity: 56.2%
Tribolium castaneum [30]
  Activity: 60.4%
Tribolium castaneum [31]
  Activity: 63.1%
Tribolium castaneum [32]
  Activity: 99.6%
Tribolium castaneum [33]
  Activity: 100%
Cryptolestes ferrugineus [34]
  mortality at 0.0375 ppm: 44.7%
Cryptolestes ferrugineus [35]
  mortality at 0.05 ppm: 47.6%
Cryptolestes ferrugineus [36]
  mortality at 0.0625 ppm: 53.1%
Cryptolestes ferrugineus [37]
  mortality at 0.075 ppm: 88.4%
Cryptolestes ferrugineus [38]
  mortality at 0.0875 ppm: 92.9%
Cryptolestes ferrugineus [39]
  mortality at 0.075 ppm: 98.2%
Cryptolestes ferrugineus [40]
  mortality at 0.0625 ppm: 76.1%
Cryptolestes ferrugineus [41]
  mortality at 0.05 ppm: 70.7%
Cryptolestes ferrugineus [42]
  mortality at 0.0375 ppm: 64%
Sitophilus zeamais [43]
  Activity: 80.2%
Sitophilus zeamais [44]
  Activity: 68.4%
Sitophilus zeamais [45]
  Activity: 59.1%
Sitophilus zeamais [46]
  Activity: 39.8%
Sitophilus zeamais [47]
  Activity: 85.3%
Sitophilus zeamais [48]
  Activity: 52.4%
